In patent publication US6673968B1, “Method of producing n-(4,5-bis-methanesulfonyl-2-methyl-benzoyl)-guanidine, the hydrochloride thereof” (Merck Patent Gesellschaft mit beschränkter Haftung, priority 1999, dated 2004):
Where “and” joins values, the source holds several entries; their conditions need not be identical. Equal values may be shown once.

Legend:
Type in all cases: in vivo
[1] = absorption from the digestive tract after oral administration (AUCpo/AUCiv), rat; settings: of the orally administered radioactively labelled substance
Description: (§1) The absorption from the digestive tract after oral administration can be calculated by comparison of the concentrations of the administered active ingredient determined in the blood plasma after oral and intravenous administration (dose-standardised AUCpo/AUCiv) [AUC=area under the curve]. […] Bioavailabilities of the hydrochloride hydrate of from 88% to 99% were found in dogs, and 75% and 96% in 2 monkeys. Since the absorption rate is at least equal to or greater than the bioavailability determined, very good absorption has thus also been found in these animal species.

[2] = bioavailability after oral administration (AUCpo/AUCiv), dogs; settings: dog, plasma, oral vs intravenous, dose-standardised AUCpo/AUCiv, read-out: Bioavailabilities
Description: as §1

[3] = bioavailability after oral administration (AUCpo/AUCiv), monkeys; settings: 2 monkeys (individual values); oral vs intravenous, dose-standardised AUCpo/AUCiv; hydrochloride hydrate
Description: as §1

For `Cc1cc(S(C)(=O)=O)c(S(C)(=O)=O)cc1C(=O)NC(=N)N.Cl.O` [hydrochloride hydrate, N-(4,5-bismethanesulfonyl-2-methylbenzoyl)guanidine, hydrochloride hydrate], the absorption rate [1] was 98%, the bioavailability [2] was 88 to 99% and the Bioavailabilities [3] was 75% and 96%.
